This note sets out measurements from patent US8765802B2, “Kinase inhibitors, compositions thereof, and methods of use therewith” (Provid Pharmaceuticals, Inc., priority 2007, dated 2014).

The target of this experiment is T1, Chk2 (Homo sapiens, UniProt O96017).
T1 construct: made in house; host or cells: E. coli BL21 Star (Invitrogen)
T1 sequence (O96017 whole entry): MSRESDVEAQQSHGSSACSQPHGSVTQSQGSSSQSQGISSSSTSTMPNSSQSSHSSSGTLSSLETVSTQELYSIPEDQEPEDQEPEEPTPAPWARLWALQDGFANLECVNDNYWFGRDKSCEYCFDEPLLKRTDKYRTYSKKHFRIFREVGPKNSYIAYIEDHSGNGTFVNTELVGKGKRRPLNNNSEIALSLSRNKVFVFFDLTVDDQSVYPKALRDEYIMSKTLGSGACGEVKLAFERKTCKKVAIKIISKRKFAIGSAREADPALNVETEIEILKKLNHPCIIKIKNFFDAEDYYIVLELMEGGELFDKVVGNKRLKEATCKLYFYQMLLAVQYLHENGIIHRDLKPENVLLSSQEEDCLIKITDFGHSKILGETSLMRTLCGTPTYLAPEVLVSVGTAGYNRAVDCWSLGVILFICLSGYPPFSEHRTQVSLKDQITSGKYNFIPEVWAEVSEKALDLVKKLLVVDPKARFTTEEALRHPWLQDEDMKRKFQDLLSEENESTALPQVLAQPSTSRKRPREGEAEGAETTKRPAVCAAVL
Description: Chk2 inhibitor IMAP assay (high-throughput Chk2 screening assay). The note with it: IMAP fluorescence polarization assay, 10 μM ATP. It counts as biochemical. As for the experimental part: Compounds set forth in Table 1 were tested in the Chk2 inhibitor IMAP assay described herein in Example 6.84. […] The letters given for the Chk2 EC50 values in Table 1 represent the following ranges: A=<100 nM; B=100-300 nM; C=300-1000 nM; D=1-10 μM; and E>10 μM.
Compounds can be screened for Chk2 inhibitory activity using a high-throughput screening assay based in the immobilized metal ion affinity-based fluorescence polarization (IMAP) assay developed by Molecular Devices. This assay is based on the high affinity binding of phosphate by immobilized metal (MIII) coordination complexes on nanoparticles. A fluorescein-labeled peptide substrate is used as the substrate for the kinase activity of Chk2 in the assay. The IMAP binding reagent stops the kinase reaction. The binding of the binding reagent results in a change in the rate of molecular motion of the peptide and causes an increase in the fluorescence polarization value observed for the fluorescein label attached to the end of the peptide. Thus, inhibition of Chk2 would result in a decrease in fluorescence polarization compared to control.
A specific protocol for screening Compounds for Chk2 inhibitory activity follows.
A Compound is supplied at 1 mM in 0.5 μl DMSO on 384 well plates (such as Greiner or Corning). After thawing, 5 μl DMSO is added to the drug plate. The drug plate is then incubated for 10 minutes to solubilize the Compound. An additional 19.5 μl of reaction buffer (10× stock prepared using 100 mM Tris-HCl, 100 mM MgCl2, 1% BSA, pH 7.2, stored at 4° C.)+1 mM DDT is added to bring the Compound to 4× final concentration. A positive control is also prepared at 4× final concentration. The following control wells are used: less enzyme control (all reagents except enzyme; 5 μl/well), less Compound control (all reagents except Compound; 5 μl/well), positive control (all reagents plus staurosporine at a final concentration of 5 μM; 5 μl/well).
Reagents are then added in the following order to give the following final concentration: 2.5 μl ATP/Chk2tide (Molecular Devices) (10 μM/100 nM final concentration), 1.25 μl Compound (5 μM final concentration inf 5.5% DMSO), and 1.25 μl Chk2 (1:500, 2.4 μg/mL final concentration).
Plates are covered and incubated at room temperature for 60 minutes.
IMAP binding reagent (Molecular Devices) is diluted 1:400 into binding buffer (Molecular Devices). 15 μl of this solution is then added to all wells and the plates are covered and incubated for 30 minutes.
Plates are read using a Tecan Ultra under the fluorescence polarization mode. Gain is set to the less enzyme and less Compound wells for each plate. Excitation 485 nm, emmission 535 nm, Z position 12519 and flashes 5 are used as settings. Raw data from the Tecan reader is imported into an access database for analysis.
`COc1ccc2[nH]c(C(=O)Nc3ccc(/C(C)=N/NC4=NCCN4)cc3)cc2c1` [Compound 23] registered an EC50 of less than 0.1 µM. In turn, `C/C(=N\NC(=N)N)c1ccc(NC(=O)c2cc3cc(N)ccc3[nH]2)cc1` [Compound 25] gave an EC50 of 0.3 to 1 µM.

Compound `C/C(=N\NC(=N)N)c1ccc(NC(=O)c2cc3cc(C(N)=O)ccc3[nH]2)cc1` [Compound 27] showed an EC50 of 0.1 to 0.3 µM.

For `COc1cc2cc(C(=O)Nc3ccc(/C(C)=N/NC(=N)N)cc3)[nH]c2cc1OCc1ccccc1` [Compound 29], the EC50 fell in the range of 1 to 10 µM. `C/C(=N/NC(=N)N)c1ccc(NC(=O)c2[nH]c3ccccc3c2Br)cc1` [Compound 30]: the EC50 was in the range of 0.3 to 1 µM. In the case of `COc1cccc2cc(C(=O)Nc3ccc(/C(C)=N/NC(=N)N)cc3)oc12` [Compound 31], the EC50 lay in the range of 0.3 to 1 µM. With `C/C(=N\NC(=N)N)c1ccc(NC(=O)c2cc3cc(Br)ccc3o2)cc1` [Compound 32], the EC50 lay within 1 to 10 µM. On to `C/C(=N/NC(=N)N)c1ccc(NC(=O)c2cc3cc(OC(F)(F)F)ccc3[nH]2)cc1` [Compound 33], for which the EC50 lay in the range of 1 to 10 µM. For `C/C(=N/NC(=N)N)c1ccc(NC(=O)c2cc3cc(OCc4ccccc4)ccc3[nH]2)cc1` [Compound 34], the EC50 is 1 to 10 µM. Turning to `CC(=NNC(=N)N)c1ccc(NC(=O)c2cc3cc([N+](=O)[O-])ccc3[nH]2)cc1` [Compound 35], the EC50 is greater than 10 µM. Take `CC(=O)c1ccc(NC(=O)Nc2ccc(/C(C)=N/NC(=N)N)cc2)cc1` [Compound 36]: the EC50 lay in the range of 0.1 to 0.3 µM. Compound `C/C(=N\NC(=N)N)c1ccc(NC(=O)Nc2ccc(Br)cc2)cc1` [Compound 37] showed an EC50 of 0.1 to 0.3 µM. Under `C/C(=N\NC(=N)N)c1ccc(NC(=O)Nc2ccc(I)cc2)cc1` [Compound 38] stands 0.3 to 1 µM; under `C/C(=N\NC(=N)N)c1ccc(NC(=O)Nc2ccc(NC(=O)Nc3ccc(/C(C)=N/NC(=N)N)cc3)cc2)cc1` [Compound 39], less than 0.1 µM. As for `COc1cc(OC)c2cc(C(=O)Nc3ccc(/C(C)=N/NC(=N)N)cc3)[nH]c2c1` [Compound 40], the EC50 lay in the range of 1 to 10 µM.

`COc1ccc2[nH]nc(C(=O)Nc3ccc(/C(C)=N/NC(=N)N)cc3)c2c1` [Compound 41] returned an EC50 of 1 to 10 µM.

Take `COc1ccc2[nH]nc(C(=O)Nc3ccc(/C(C)=N/NC(=N)N)cc3)c2c1` [Compound 42]: the EC50 was greater than 10 µM. As for `COc1ccc2nc(NC(=O)c3ccc(/C(C)=N/NC(=N)N)cc3)sc2c1` [Compound 43], the EC50 lay in the range of 1 to 10 µM. `COc1cccc2sc(NC(=O)c3ccc(/C(C)=N\NC(=N)N)cc3)nc12` [Compound 44] yielded an EC50 greater than 10 µM. On to `COc1cc2nc(NC(=O)c3ccc(/C(C)=N\NC(=N)N)cc3)sc2cc1OC` [Compound 45], for which the EC50 lay in the range of 1 to 10 µM. Consider `COc1cc2nc(NC(=O)c3ccc(/C(C)=N/NC(=N)N)cc3)sc2cc1OC` [Compound 46], for which the EC50 was in the range of 1 to 10 µM. Next, `C/C(=N\NC(=N)N)c1ccc(NC(=O)c2ccc(-c3cnc(N)nc3)cc2)cc1` [Compound 47]: 0.3 to 1 µM.

For `C/C(=N\NC(=N)N)c1ccc(NC(=O)Nc2ccc(-c3csc(NN)n3)cc2)cc1` [Compound 48], the EC50 was greater than 10 µM.

For `C/C(=N\NC(=N)N)c1ccc2[nH]c(C(=O)Nc3ccc(N4CCNCC4)cc3)cc2c1` [Compound 49], the EC50 was in the range of 0.1 to 0.3 µM. For the compound `C/C(=N\NC(=N)N)c1ccc(NC(=O)Nc2ccc(C)cc2)cc1` [Compound 50], the EC50 was 1 to 10 µM. Under `C/C(=N\NC(=N)N)c1ccc(NC(=O)Nc2ccc(/C(=N/NC(=N)N)C(C)C)cc2)cc1` [Compound 51] stands 1 to 10 µM; under `C/C(=N\NC(=N)N)c1ccc(NC(=O)c2cc3ccccc3o2)cc1` [Compound 52], 1 to 10 µM.

`CC/C(=N\NC(=N)N)c1ccc(NC(=O)c2ccco2)cc1` [Compound 53] came in with an EC50 of 1 to 10 µM. Regarding `C/C(=N\NC(=N)N)c1ccc(NC(=O)Nc2ccc(/C(=N/NC(=N)N)c3ccccc3)cc2)cc1` [Compound 54], the EC50 was in the range of 1 to 10 µM.
